Test results published in patent publication US11518763B2 (SCOHIA PHARMA, INC., priority 2018, dated 2022).
Like-named read-outs stand apart in the source and are kept apart here.

What was measured:
[1] = amide bond, DMF
Nqo1 mRNA = assay: Expression of NRF2-downstream gene Nqo1 mRNA in rat kidney and liver after oral administration; format: in vivo; conditions: 17 h, male SD rats, 3 mg/kg oral, about 17 hours after administration, read-out: Nqo1 mRNA expression (fold change vs vehicle)
Description: Test Example 2: Activity of Compound on Expression of NRF2-Downstream Gene in Rat Kidney and Liver
For the NRF2-downstream gene, Nqol mRNA was examined in regard to the expression level in kidney. Compounds were prepared into 0.5% methylcellulose (MC, METOLOSE, Shin-Etsu Chemical Co., Ltd.) suspensions, and were orally administered to male SD rats (CLEA Japan, Inc.) in a dose of 5 mL/kg. About 17 hours after the administration, the rats were euthanized under anesthesia, and their kidneys and livers were collected. By using an extraction kit, QIAsymphony RNA kit (QIAGEN, catalog number 931636) or RNeasy 96 Kit (QIAGEN, catalog number 74182), total RNA was extracted. From the total RNA thus obtained, cDNA was produced by using a cDNA synthesis kit, Superscript IV VIVO Master Mix (Thermo Fisher Scientific, catalog number 11754-250). By using the cDNA thus obtained with Taqman Fast Advanced Master Mix (Thermo Fisher Scientific, catalog number 4444557) or Platinum Quantitative PCR SuperMix (Thermo Fisher Scientific, catalog number 11743-500), and primers and a probe, the sequences of SEQ ID NO:1. SEQ ID NO:2, and SEQ ID NO: 3, which are shown in Table 4, real-time quantitative PCR was conducted with 7900HT Fast Real-Time PCR Systems or ViiA7 Fast Real-Time PCR Systems (Applied Biosystems). The expression level of Nqol mRNA in each organ of the rat to which the vehicle, 0.5% MC solution, was administered is defined as 1, and the variation is shown in Table 5.

[2] = target: T1, binding between NRF2 and KEAP1 (biotinylated human KEAP1 protein (Kelch domain), TAMRA-labeled NRF2 peptide) (Homo sapiens, UniProt Q14145); assay: Measurement of activity of inhibiting NRF2 binding (NRF2-KEAP1 TR-FRET); conditions: inhibition rate relative to control at 100 nM test compound, TR-FRET, 60 min at room temperature; for inhibition at 0.1 µM: read-out: NRF2 binding inhibitory activity (at 100 nM)
T1 construct: biotinylated human KEAP1 protein (Kelch domain); biotin (biotinylated)
T1 sequence (Q14145 321-609 limits assumed): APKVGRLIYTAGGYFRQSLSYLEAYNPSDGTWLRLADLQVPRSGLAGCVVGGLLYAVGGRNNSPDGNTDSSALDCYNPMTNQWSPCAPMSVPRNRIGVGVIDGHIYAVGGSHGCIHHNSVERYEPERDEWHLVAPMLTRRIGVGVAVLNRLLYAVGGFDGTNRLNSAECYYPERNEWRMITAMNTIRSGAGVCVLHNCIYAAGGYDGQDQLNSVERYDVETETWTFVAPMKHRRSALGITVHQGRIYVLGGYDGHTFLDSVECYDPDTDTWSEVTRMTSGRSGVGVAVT
Description: Test Example 1: Measurement of Activity of Inhibiting NRF2 Binding
The inhibitory activity of test compounds against the binding between NRF2 and KEAP1 was measured by Time Resolved Fluorescence Resonance Energy Transfer (TR-FRET) method. Into a 384 well plate, 2 μL of a compound, 2 μL of 2 nM solution of biotinylated human KEAP1 protein (Kelch domain), 2 μL of 14 nM solution of TAMRA-labeled NRF2 peptide (TAMRA-Abu(4)-VWYTDIRMRDWM-OH), and 2 μL of 2 nM solution of Tb-labeled streptavidin, all solutions diluted with assay buffer (25 mM HEPES, pH7.5, 150 mM NaCl, 0.01% Tween-20), were added. For some wells, the KEAP1 protein was not added to define control wells. The plate was incubated at room temperature for 60 minutes, and time-resolved fluorescence was measured with a plate reader Envision (manufactured by PerkinElmer). The inhibitory activity for each compound at a compound concentration of 100 nM were calculated as a relative activity value by setting the fluorescence intensity of control wells to which the KEAP1 protein was not added as 100% inhibition, and the fluorescence intensity of wells to which no compound was added as 0%.
The measurement results according to the method described above (inhibition rate of signal value relative to control at 100 nM of test compound) are shown in Table 3.

Structure (SMILES) | fold induction at 3 mg/kg (Nqo1 mRNA; Kidney) | inhibition at 0.1 µM [2] [%] | further results
CCOC(=O)CC1c2ccc3c(c2)CN(CC3)C(=O)c2ccc(cc2)COCCCn2nnc3c(C)c1ccc32 (stereo not shown) |  |  | ring closure, yield of all isomers ([1]; from CCOC(=O)CC(c1ccc2c(c1)CN(C(=O)OC(C)(C)C)CC2)c1ccc2c(nnn2CCCOCc2ccc(C(=O)OC(C)(C)C)cc2)c1C, HATU, 23.0 mM, 25.0 °C, 3.0 h, 2 steps): 67.7%
COC(=O)C(C)(C)C1c2ccc3c(c2)CN(CC3)C(=O)c2c(Cl)cc(cc2Cl)OCCCCn2nnc3c(C)c1ccc32 (stereo not shown) |  |  | ring closure, yield of all isomers ([1]; from COC(=O)C(C)(C)C(c1ccc2c(c1)CNCC2)c1ccc2c(nnn2CCCCOc2cc(Cl)c(C(=O)O)c(Cl)c2)c1C, HATU/DIPEA, 15.2 mM, 25.0 °C, 4.0 h): 47.5%
COC(=O)C(C)(C)C1c2ccc3c(c2)CN(CC3)C(=O)c2ccc(cc2)CCCCCn2nnc3c(C)c1ccc32 (stereo not shown) |  |  | ring closure, yield of all isomers ([1]; from COC(=O)C(C)(C)C(c1ccc2c(c1)CNCC2)c1ccc2c(nnn2CCCCCc2ccc(C(=O)O)cc2)c1C, HATU, 17.6 mM, 30.0 °C, 19.0 h): 12.4%
CCc1cc2ccc1C(=O)N1CCc3ccc(cc3C1)C(CC(=O)O)c1ccc3c(nnn3CCCCC2)c1C (racemic) [Example 3, [18-Ethyl-32-methyl-20-oxo-8,9,10,21-tetraazahexacyclo[19.5.3.2^16,19.1^3,7.0^6,10.0^24,28]dotriaconta-1(26),3(32),4,6,8,16,18,24,27,30-decaen-2-yl]acetic acid] | 4.7 | 100 | 
Cc1c2ccc3c1nnn3CCCCCc1ccc(c3c1OCC3)C(=O)N1CCc3ccc(cc3C1)C2CC(=O)O (racemic) [Example 4, [33-Methyl-2-oxo-7-oxa-1,15,16,17-tetraazaheptacyclo[22.5.3.2^3,9.1^18,22.0^4,8.0^15,19.0^27,31]pentatriaconta-3,8,16,18(33),19,21,24,26,31,34-decaen-23-yl]acetic acid] | 6.8 | 100 | 
Cc1c2ccc3c1nnn3CCCCCc1ccc(c3c1OC(C)(C)C3)C(=O)N1CCc3ccc(cc3C1)C2CC(=O)O (racemic) [Example 5, [6,6,33-Trimethyl-2-oxo-7-oxa-1,15,16,17-tetraazaheptacyclo[22.5.3.2^3,9.1^18,22.0^4,8.0^15,19.0^27,31]pentatriaconta-3,8,16,18(33),19,21,24,26,31,34-decaen-23-yl]acetic acid] | 3.3 | 100 | 
Cc1c2ccc3c1nnn3CCCCCc1ccc(c3c1CCO3)C(=O)N1CCc3ccc(cc3C1)C2CC(=O)O (racemic) [Example 7, [33-Methyl-2-oxo-5-oxa-1,15,16,17-tetraazaheptacyclo[22.5.3.2^3,9.1^18,22.0^4,8.0^15,19.0^27,31]pentatriaconta-3,8,16,18(33),19,21,24,26,31,34-decaen-23-yl]acetic acid] | 4.3 | 100 | 
Cc1c2ccc3c1nnn3CCCCCc1ccc(c(Cl)c1)C(=O)N1CCc3ccc(cc3C1)C2CC(=O)O (racemic) [Example 9, [18-Chloro-32-methyl-20-oxo-8,9,10,21-tetraazahexacyclo[19.5.3.2^16,19.1^3,7.0^6,10.0^24,28]dotriaconta-1(26),3(32),4,6,8,16,18,24,27,30-decaen-2-yl]acetic acid] | 5.5 | 100 | 
Cc1c2ccc3c1nnn3CCCCCc1ccc(c(F)c1)C(=O)N1CCc3ccc(cc3C1)C2CC(=O)O (racemic) [Example 10, [18-Fluoro-32-methyl-20-oxo-8,9,10,21-tetraazahexacyclo[19.5.3.2^16,19.1^3,7.0^6,10.0^24,28]dotriaconta-1(26),3(32),4,6,8,16,18,24,27,30-decaen-2-yl]acetic acid] | 5.9 | 100 | 
Cc1c2ccc3c1nnn3CCCOCc1ccc(c(F)c1)C(=O)N1CCc3ccc(cc3C1)C2CC(=O)O (racemic) [Example 21, [18-Fluoro-32-methyl-20-oxo-14-oxa-8,9,10,21-tetraazahexacyclo[19.5.3.2^16,19.1^3,7.0^6,10.0^24,28]dotriaconta-1(26),3(32),4,6,8,16,18,24,27,30-decaen-2-yl]acetic acid] | 5 | 100 | 
Cc1c2ccc3c1nnn3CCOCCc1ccc(cc1)C(=O)N1CCc3ccc(cc3C1)C2CC(=O)O (racemic) [Example 29, [32-Methyl-20-oxo-13-oxa-8,9,10,21-tetraazahexacyclo[19.5.3.2^16,19.1^3,7.0^6,10.0^24,28]dotriaconta-1(26),3(32),4,6,8,16,18,24,27,30-decaen-2-yl]acetic acid] | 5.9 | 100 | 
Cc1c2ccc3c1nnn3CCCCCc1ccc(cc1)C(=O)N1CCc3ccc(cc3C1)C2CC(=O)O (stereo not shown) [Example 11, [32-Methyl-20-oxo-8,9,10,21-tetraazahexacyclo[19.5.3.2^16,19.1^3,7.0^6,10.0^24,28]dotriaconta-1(26),3(32),4,6,8,16,18,24,27,30-decaen-2-yl]acetic acid] | 8 | 100 | 
Cc1c2ccc3c1nnn3CCCOCc1ccc(cc1)C(=O)N1CCc3ccc(cc3C1)C2CC(=O)O (stereo not shown) [Example 25, [32-Methyl-20-oxo-14-oxa-8,9,10,21-tetraazahexacyclo[19.5.3.2^16,19.1^3,7.0^6,10.0^24,28]dotriaconta-1(26),3(32),4,6,8,16,18,24,27,30-decaen-2-yl]acetic acid] | 6.5 | 100 | fold induction at 3 mg/kg (Nqo1 mRNA; Liver): 22.2
Cc1c2ccc3c1nnn3CCCOCc1ccc(cc1)C(=O)N1CCc3ccc(cc3C1)C2C(C)(C)C(=O)O (stereo not shown) [Example 55, 2-methyl-2-[32-methyl-20-oxo-14-oxa-8,9,10,21-tetrazahexacyclo[19.5.3.2^16,19.1^3,7.0^6,10.0^24,28]dotriaconta-1(27),3(32),4,6,8,16,18,24(28),25,30-decaen-2-yl]propanoic acid] | 6.3 | 100 | 
Cc1cc2cc(C)c1C(=O)N1CCc3ccc(cc3C1)C(C(C)(C)C(=O)O)c1ccc3c(nnn3CCCOC2)c1C (stereo not shown) [Example 58, 2-methyl-2-[18,30,32-trimethyl-20-oxo-14-oxa-8,9,10,21-tetrazahexacyclo[19.5.3.2^16,19.1^3,7.0^6,10.0^24,28]dotriaconta-1(27),3(32),4,6,8,16(31),17,19(30),24(28),25-decaen-2-yl]propanoic acid] | 4.8 | 100 | 
Cc1c2ccc3c1nnn3CCCOCc1cc(Cl)c(c(Cl)c1)C(=O)N1CCc3ccc(cc3C1)C2C(C)(C)C(=O)O (stereo not shown) [Example 60, 2-[18,30-dichloro-32-methyl-20-oxo-14-oxa-8,9,10,21-tetrazahexacyclo[19.5.3.2^16-19.1^3,7.0^6,10.0^24,28]dotriaconta-1(27),3(32),4,6,8,16,18,24(28),25,30-decaen-2-yl]-2-methylpropanoic acid] | 2.9 | 100 | 
Cc1c2ccc3c1nnn3CCCCCc1ccc(cc1)C(=O)N1CCc3ccc(cc3C1)C2C(C)(C)C(=O)O (stereo not shown) [Example 62, 2-methyl-2-[32-methyl-20-oxo-8,9,10,21-tetrazahexacyclo[19.5.3.2^16,19.1^3,7.0^6,10.0^24,28]dotriaconta-1(27),3(32),4,6,8,16(31),17,19(30),24(28),25-decaen-2-yl]propanoic acid] | 6.9 |  | NRF2 binding inhibitory activity (at 100 nM) ([2]; 0.1 µM): 100%
Cc1c2ccc3c1nnn3CCCCOc1cc(Cl)c(c(Cl)c1)C(=O)N1CCc3ccc(cc3C1)C2C(C)(C)C(=O)O (stereo not shown) [Example 65, 2-[18,30-dichloro-32-methyl-20-oxo-15-oxa-8,9,10,21-tetrazahexacyclo[19.5.3.2^16,19.1^3,7.0^6,10.0^24,28]dotriaconta-1(27),3(32),4,6,8,16(31),17,19(30),24(28),25-decaen-2-yl]-2-methylpropanoic acid] | 3.6 | 100 | 
